Here are results for one substance from patent publication US8815007B2, “Alkoxylated polyamines and polyetheramine polyol compositions for foam control” (priority 2007, dated 2014).

The series in a line: Equilibrium surface tension, double-probe bubble tensiometer. The series is classed as physicochemical. The conditions noted are these: one bubble per second. As to the method: The antifoaming properties of the above compositions were evaluated using the blender foam test as described below. Surface tensions were determined using a […] OC-6000 double-probe bubble tensiometer. Equilibrium surface tensions were determined on 0.1% active solutions in deionized water at 25° C. by using a bubble rate of one bubble per second. […] Surface tension measurements were carried out using a Sensation QC-6000 double-probe bubble tensiometer from the Sensation Division of Chem-Dyne Research Corp. of Mesa, Ariz.

With “diethylenetriamine/2 mol 1-epoxyoctane adduct [Example 2]”, the Surface Tension is, setting by setting: (Table 2, 0.1% active solutions in deionized water at 25° C.) 36.2 mN/m; (Table 3, 0.1% active solutions in deionized water at 25 deg C.) 36.2 mN/m.
